In patent US6737383B1, “Herbicidal oxadiazolidines” (priority 1999, dated 2004):

Columns and labels:
surinam grass = test: Test B pre/postemergence surinam grass; format: in vivo, Brachiaria decumbens
In short: (§1)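 Herbicidal effect was estimated by eye on a ten-point control scale after plants spent twelve to sixteen days in a greenhouse following soil or foliar treatment. Foliar sprays targeted plants at one to four leaves; all doses were formulated in a non-phytotoxic solvent with surfactant.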

duck salad = test: Test B flood test duck salad; format: in vivo, Heteranthera limosa
In short: (§2)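 Read-out is a visual response score from 0 (no effect) to 10 (complete control), assigned by comparison with untreated controls. Treatment was applied at the 2-leaf stage, and plants stayed in the greenhouse for twelve to sixteen days before scoring.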

purple nutsedge = test: Test B pre/postemergence purple nutsedge; format: in vivo, Cyperus rotundus
In short: as §1

cocklebur = test: Test B pre/postemergence cocklebur; format: in vivo, Xanthium strumarium
In short: as §1

velvetleaf = test: Test B pre/postemergence velvetleaf; format: in vivo, Abutilon theophrasti
In short: as §1

giant foxtail = test: Test B pre/postemergence giant foxtail; format: in vivo, Setaria faberii
In short: as §1

sugar beet = test: Test B pre/postemergence sugar beet; format: in vivo, Beta vulgaris
In short: as §1

corn = test: Test B pre/postemergence corn; format: in vivo, Zea mays
In short: as §1

bedstraw = test: Test B pre/postemergence bedstraw; format: in vivo, Galium aparine
In short: as §1

soybean = test: Test B pre/postemergence soybean; format: in vivo, Glycine max
In short: as §1

smallflower flatsedge = test: Test B flood test smallflower flatsedge; format: in vivo, Cyperus difformis
In short: as §2

wheat = test: Test B pre/postemergence wheat; format: in vivo, Triticum aestivum
In short: as §1

rape = test: Test B pre/postemergence rape; format: in vivo, Brassica napus
In short: as §1

rice = test: Test B flood test rice; format: in vivo, Oryza sativa
In short: as §2

crabgrass = test: Test B pre/postemergence crabgrass; format: in vivo, Digitaria sanguinalis
In short: as §1

blackgrass = test: Test B pre/postemergence blackgrass; format: in vivo, Alopecurus myosuroides
In short: as §1

bamyardgrass = test: Test B flood test barnyardgrass; format: in vivo, Echinochloa crus-galli
In short: as §2

[1] = Postemergence, Rate 125 g/ha, scale of 0 to 10 where 0 is no effect and 10 is complete control
[2] = Preemergence, Rate 62 g/ha, scale of 0 to 10 where 0 is no effect and 10 is complete control
[3] = Preemergence, Rate 125 g/ha, 0 is no effect, 10 is complete control
[4] = Preemergence, Rate 250 g/ha, scale 0 to 10, 0 is no effect, 10 is complete control
[5] = Preemergence, Rate 500 g/ha, scale 0 to 10 (0 no effect, 10 complete control)
[6] = Rate 62 g/ha, Postemergence, scale of 0 to 10 where 0 is no effect and 10 is complete control
[7] = Rate 250 g/ha, Postemergence, scale 0 to 10, 0 is no effect, 10 is complete control
[8] = Postemergence (flood test species), Rate 125 g/ha, scale of 0 to 10 where 0 is no effect and 10 is complete control
[9] = Rate 62 g/ha, Postemergence section, flood test species, scale of 0 to 10 where 0 is no effect and 10 is complete control
[10] = Rate 250 g/ha, Postemergence (flood test), scale 0 to 10, 0 is no effect, 10 is complete control
[11] = Rate 500 g/ha, listed under Postemergence (flood test species), scale 0 to 10
[12] = Rate 500 g/ha, Postemergence, scale 0 to 10

Question: With `CC(C)N(C(=O)n1oc(=O)n(N(C)C)c1=O)c1ccc(F)cc1` [Compound 170] as the compound, how does the “B. signalgrass plant response rating” value (surinam grass; [1]) read?
Answer: 6

Question: And the “B. signalgrass plant response rating” value (surinam grass; [2])?
Answer: 2

Question: What about the “B. signalgrass plant response rating (0 to 10 scale)” value (surinam grass; [3]) of the same compound?
Answer: 9

Question: And the “B. signalgrass plant response rating” value (surinam grass; [4])?
Answer: 10

Question: What about the “B. signalgrass plant response rating” value (surinam grass; [5]) of the same compound?
Answer: 10

Question: And the “B. signalgrass plant response rating” value (surinam grass; [6])?
Answer: 3

Question: And the “Plant response rating, B. signalgrass” value (surinam grass; [7])?
Answer: 9

Question: What about the “B. signalgrass plant response rating” value (surinam grass; Rate 500 g/ha, Postemergence, scale 0 to 10, 0 no effect, 10 complete control) of the same compound?
Answer: 10

Question: And the “Ducksalad plant response rating” value (duck salad; [8])?
Answer: 0

Question: And the “Ducksalad plant response rating” value (duck salad; [9])?
Answer: 0

Question: What about the “Plant response rating, Ducksalad” value (duck salad; [10]) of the same compound?
Answer: 0

Question: What about the “Ducksalad plant response rating” value (duck salad; [11]) of the same compound?
Answer: 0

Question: What about the “Nutsedge plant response rating” value (purple nutsedge; [1]) of the same compound?
Answer: 2

Question: And the “Nutsedge plant response rating” value (purple nutsedge; [2])?
Answer: 0

Question: What about the “Nutsedge plant response rating (0 to 10 scale)” value (purple nutsedge; [3]) of the same compound?
Answer: 9

Question: What about the “Nutsedge plant response rating” value (purple nutsedge; [4]) of the same compound?
Answer: 9

Question: What about the “Nutsedge plant response rating” value (purple nutsedge; [5]) of the same compound?
Answer: 9

Question: What about the “Nutsedge plant response rating” value (purple nutsedge; [6]) of the same compound?
Answer: 2

Question: What about the “Plant response rating, Nutsedge” value (purple nutsedge; [7]) of the same compound?
Answer: 7

Question: And the “Nutsedge plant response rating” value (purple nutsedge; [12])?
Answer: 7

Question: And the “Cocklebur plant response rating” value (cocklebur; [1])?
Answer: 0

Question: And the “Cocklebur plant response rating” value (cocklebur; [2])?
Answer: 0

Question: What about the “Cocklebur plant response rating (0 to 10 scale)” value (cocklebur; [3]) of the same compound?
Answer: 0

Question: What about the “Cocklebur plant response rating” value (cocklebur; [4]) of the same compound?
Answer: 0

Question: What about the “Cocklebur plant response rating” value (cocklebur; [5]) of the same compound?
Answer: 9

Question: And the “Cocklebur plant response rating” value (cocklebur; [6])?
Answer: 0

Question: And the “Plant response rating, Cocklebur” value (cocklebur; [7])?
Answer: 0

Question: And the “Cocklebur plant response rating” value (cocklebur; [12])?
Answer: 0

Question: And the “Velvetleaf plant response rating” value (velvetleaf; [2])?
Answer: 3

Question: And the “Velvetleaf plant response rating (0 to 10 scale)” value (velvetleaf; [3])?
Answer: 7

Question: What about the “Velvetleaf plant response rating” value (velvetleaf; [4]) of the same compound?
Answer: 10

Question: And the “Velvetleaf plant response rating” value (velvetleaf; [5])?
Answer: 10

Question: And the “Plant response rating, Velvetleaf” value (velvetleaf; [7])?
Answer: 5

Question: What about the “Velvetleaf plant response rating” value (velvetleaf; [12]) of the same compound?
Answer: 5

Question: And the “Giant foxtail plant response rating” value (giant foxtail; [1])?
Answer: 7

Question: What about the “Giant foxtail plant response rating” value (giant foxtail; [2]) of the same compound?
Answer: 9

Question: And the “Giant foxtail plant response rating (0 to 10 scale)” value (giant foxtail; [3])?
Answer: 10

Question: What about the “Giant foxtail plant response rating” value (giant foxtail; [4]) of the same compound?
Answer: 10

Question: What about the “Giant foxtail plant response rating” value (giant foxtail; [5]) of the same compound?
Answer: 10

Question: What about the “Giant foxtail plant response rating” value (giant foxtail; [6]) of the same compound?
Answer: 4

Question: And the “Plant response rating, Giant foxtail” value (giant foxtail; [7])?
Answer: 8

Question: And the “Giant foxtail plant response rating” value (giant foxtail; [12])?
Answer: 8

Question: What about the “Sugarbeets plant response rating” value (sugar beet; [1]) of the same compound?
Answer: 0

Question: What about the “Sugarbeets plant response rating” value (sugar beet; [2]) of the same compound?
Answer: 4

Question: What about the “Sugarbeets plant response rating (0 to 10 scale)” value (sugar beet; [3]) of the same compound?
Answer: 8

Question: And the “Sugarbeets plant response rating” value (sugar beet; [4])?
Answer: 8

Question: And the “Sugarbeets plant response rating” value (sugar beet; [5])?
Answer: 10

Question: What about the “Sugarbeets plant response rating” value (sugar beet; [6]) of the same compound?
Answer: 0

Question: What about the “Plant response rating, Sugarbeets” value (sugar beet; [7]) of the same compound?
Answer: 2

Question: And the “Sugarbeets plant response rating” value (sugar beet; [12])?
Answer: 4

Question: What about the “Corn plant response rating” value (corn; [1]) of the same compound?
Answer: 0

Question: What about the “Corn plant response rating” value (corn; [2]) of the same compound?
Answer: 0

Question: What about the “Corn plant response rating (0 to 10 scale)” value (corn; [3]) of the same compound?
Answer: 2

Question: What about the “Corn plant response rating” value (corn; [4]) of the same compound?
Answer: 6

Question: What about the “Corn plant response rating” value (corn; [5]) of the same compound?
Answer: 9

Question: What about the “Corn plant response rating” value (corn; [6]) of the same compound?
Answer: 0

Question: What about the “Plant response rating, Corn” value (corn; [7]) of the same compound?
Answer: 0

Question: And the “Corn plant response rating” value (corn; [12])?
Answer: 0

Question: What about the “Bedstraw plant response rating” value (bedstraw; [1]) of the same compound?
Answer: 0

Question: What about the “Bedstraw plant response rating” value (bedstraw; [2]) of the same compound?
Answer: 0

Question: And the “Bedstraw plant response rating (0 to 10 scale)” value (bedstraw; [3])?
Answer: 0

Question: And the “Bedstraw plant response rating” value (bedstraw; [4])?
Answer: 6

Question: What about the “Bedstraw plant response rating” value (bedstraw; [5]) of the same compound?
Answer: 9

Question: And the “Bedstraw plant response rating” value (bedstraw; [6])?
Answer: 0

Question: And the “Plant response rating, Bedstraw” value (bedstraw; [7])?
Answer: 0

Question: And the “Bedstraw plant response rating” value (bedstraw; [12])?
Answer: 2

Question: What about the “Soybean plant response rating” value (soybean; [1]) of the same compound?
Answer: 3

Question: What about the “Soybean plant response rating” value (soybean; [2]) of the same compound?
Answer: 0

Question: And the “Soybean plant response rating (0 to 10 scale)” value (soybean; [3])?
Answer: 1

Question: And the “Soybean plant response rating” value (soybean; [4])?
Answer: 4

Question: What about the “Soybean plant response rating” value (soybean; [5]) of the same compound?
Answer: 9

Question: And the “Soybean plant response rating” value (soybean; [6])?
Answer: 2

Question: What about the “Plant response rating, Soybean” value (soybean; [7]) of the same compound?
Answer: 4

Question: And the “Soybean plant response rating” value (soybean; [12])?
Answer: 7

Question: And the “S. Flatsedge plant response rating” value (smallflower flatsedge; [8])?
Answer: 0

Question: What about the “S. Flatsedge plant response rating” value (smallflower flatsedge; [9]) of the same compound?
Answer: 0

Question: What about the “Plant response rating, S. Flatsedge” value (smallflower flatsedge; [10]) of the same compound?
Answer: 0

Question: What about the “S. Flatsedge plant response rating” value (smallflower flatsedge; [11]) of the same compound?
Answer: 0

Question: And the “Wheat plant response rating” value (wheat; [2])?
Answer: 5

Question: What about the “Wheat plant response rating (0 to 10 scale)” value (wheat; [3]) of the same compound?
Answer: 6

Question: What about the “Wheat plant response rating” value (wheat; [4]) of the same compound?
Answer: 8

Question: What about the “Wheat plant response rating” value (wheat; [5]) of the same compound?
Answer: 8

Question: And the “Plant response rating, Wheat” value (wheat; [7])?
Answer: 6

Question: And the “Wheat plant response rating” value (wheat; [12])?
Answer: 7

Question: And the “Rape plant response rating” value (rape; [1])?
Answer: 0

Question: And the “Rape plant response rating” value (rape; [2])?
Answer: 2

Question: And the “Rape plant response rating (0 to 10 scale)” value (rape; [3])?
Answer: 8

Question: What about the “Rape plant response rating” value (rape; [4]) of the same compound?
Answer: 10

Question: And the “Rape plant response rating” value (rape; [5])?
Answer: 10

Question: What about the “Rape plant response rating” value (rape; [6]) of the same compound?
Answer: 0

Question: What about the “Plant response rating, Rape” value (rape; [7]) of the same compound?
Answer: 0

Question: What about the “Rape plant response rating” value (rape; [12]) of the same compound?
Answer: 3

Question: What about the “Rice plant response rating” value (rice; [8]) of the same compound?
Answer: 0

Question: And the “Rice plant response rating” value (rice; [9])?
Answer: 0

Question: What about the “Plant response rating, Rice” value (rice; [10]) of the same compound?
Answer: 0

Question: And the “Rice plant response rating” value (rice; [11])?
Answer: 0

Question: What about the “Crabgrass plant response rating” value (crabgrass; [1]) of the same compound?
Answer: 9

Question: And the “Crabgrass plant response rating” value (crabgrass; [2])?
Answer: 8

Question: And the “Crabgrass plant response rating (0 to 10 scale)” value (crabgrass; [3])?
Answer: 10

Question: And the “Crabgrass plant response rating” value (crabgrass; [4])?
Answer: 10

Question: What about the “Crabgrass plant response rating” value (crabgrass; [5]) of the same compound?
Answer: 10

Question: What about the “Crabgrass plant response rating” value (crabgrass; [6]) of the same compound?
Answer: 8

Question: And the “Plant response rating, Crabgrass” value (crabgrass; [7])?
Answer: 9

Question: What about the “Crabgrass plant response rating” value (crabgrass; [12]) of the same compound?
Answer: 9

Question: What about the “Blackgrass plant response rating” value (blackgrass; [1]) of the same compound?
Answer: 9

Question: What about the “Blackgrass plant response rating” value (blackgrass; [2]) of the same compound?
Answer: 10

Question: And the “Blackgrass plant response rating (0 to 10 scale)” value (blackgrass; [3])?
Answer: 10

Question: What about the “Blackgrass plant response rating” value (blackgrass; [4]) of the same compound?
Answer: 10

Question: And the “Blackgrass plant response rating” value (blackgrass; [5])?
Answer: 10

Question: And the “Blackgrass plant response rating” value (blackgrass; [6])?
Answer: 9

Question: What about the “Plant response rating, Blackgrass” value (blackgrass; [7]) of the same compound?
Answer: 9

Question: What about the “Blackgrass plant response rating” value (blackgrass; [12]) of the same compound?
Answer: 9

Question: What about the “Barnyardgrass plant response rating” value (bamyardgrass; [8]) of the same compound?
Answer: 0

Question: And the “Barnyardgrass plant response rating” value (bamyardgrass; [9])?
Answer: 0

Question: And the “Plant response rating, Barnyardgrass” value (bamyardgrass; [10])?
Answer: 0

Question: And the “Barnyardgrass plant response rating” value (bamyardgrass; [11])?
Answer: 0
